The test system of experiment [1] is SD rats. The experiment can be described thus: animal or person. Particulars: for ED50: Rattus norvegicus, SD rats (male, 220-300 g), injection via the tail vein, disappearance of righting reflex, read-out: ED50; for 2ED50 duration / 2ED50 recovery time / Quality of recovery: SD rats; for 2ED50 duration / 2ED50 recovery time: single tail vein injection at 2×ED50; for 2ED50 duration: time from disappearance to recovery of righting reflex; for 2ED50 recovery time: time from recovery of righting reflex to free crawling; for Quality of recovery: tail vein injection. The format is in vivo.

The test system of experiment [2] is KM mice. The experiment can be described thus: animal or person. The format is in vivo. Particulars: for 2ED50 duration / 2ED50 recovery time / Quality of recovery: KM mice; for 2ED50 duration / 2ED50 recovery time: single tail vein injection at 2×ED50; for 2ED50 duration: time from disappearance to recovery of righting reflex; for 2ED50 recovery time: time from recovery of righting reflex to free crawling; for Quality of recovery: tail vein injection; for ED50: Mus musculus, KM mice (male, 18-22 g), injection via the tail vein, disappearance of righting reflex, read-out: ED50.

Take `COC(=O)C(C)OC(=O)CC[C@@H]1N=C(c2ccccn2)c2cc(Br)ccc2-n2c(C)cnc21` (some centres unmarked) [Example 60]: in experiment [1], the ED50 was found to be 3.5 mg/kg, the “2ED50 duration” value is 2.12 min, the 2ED50 recovery time worked out at 2.14 min and the Quality of recovery result is on record as “+++ (“+++” means 3-5 min)”. For the same compound, in experiment [2], the 2ED50 duration worked out at 2.46 min, the 2ED50 recovery time was 1.47 min, the Quality of recovery entry is “++ (“++” means 1-3 min)” and the median effective dose (ED50) was found to be 22.5 mg/kg.

For the compound `Cc1cnc2n1-c1cc(Br)c(Cl)cc1C(c1ccncc1)=N[C@H]2CCC(=O)OCOC(=O)OC(C)(C)C` [Example 33], in experiment [1], the ED50 turned out to be 6.2 mg/kg, the “2ED50 duration” value was 3.51 min, the 2ED50 recovery time turned out to be 2.38 min and the Quality of recovery entry is reported as “+++ (“+++” means 3-5 min)”. In experiment [2], the 2ED50 duration was 3.21 min, the 2ED50 recovery time is on record as 1.48 min, the Quality of recovery result is listed as “++ (“++” means 1-3 min)” and the ED50 amounted to 21.2 mg/kg.

Take `Cc1cnc2n1-c1cc(Br)c(Br)cc1C(c1ccccn1)=N[C@H]2CCC(=O)OC1(C(=O)OOC2CC(Cl)C2)CC1` (some centres unmarked) [Example 64]: in experiment [1], the ED50 is 2.7 mg/kg, the “2ED50 duration” value is recorded as 3.15 min, the 2ED50 recovery time was found to be 2.18 min and the Quality of recovery result was “++ (“++” means 1-3 min)”. Also, in experiment [2], the 2ED50 duration was 3.09 min, the 2ED50 recovery time came out at 2.12 min, the Quality of recovery entry is “+++ (“+++” means 3-5 min)” and the ED50 turned out to be 24.1 mg/kg.

For the compound `CCOC(=O)COC(=O)CC[C@@H]1N=C(c2ccccn2)c2cc(Cl)c(OC(F)(F)F)cc2-n2c(C)cnc21` [Example 28], in experiment [1], the ED50 was determined as 4.5 mg/kg, the “2ED50 duration” value was 0.58 min, the 2ED50 recovery time was 0.33 min and the Quality of recovery entry is “+ (“+” means <1 min)”. Also, in experiment [1] (rats, tail vein, in words), the “duration and recovery time compared with remimazolam” value is given as “significantly shorter”; the “effective dose compared with remimazolam” value is listed as “significantly lower”. Besides, in experiment [2], the 2ED50 duration worked out at 0.52 min, the 2ED50 recovery time is 0.58 min and the ED50 turned out to be 9.5 mg/kg. In addition, in experiment [2] (mice, tail vein, in words), the “duration and recovery time compared with remimazolam” value was “significantly shorter”; the “effective dose compared with remimazolam” value is on record as “significantly lower”.

What is called ED50 is the dose at which the effect has come halfway, by size or by number of responders.

Source of the values: patent publication US12473291B2 (priority 2019, dated 2025).
